The results in this text go back to US9505781B2, “Compositions comprising thienopyrimidine and thienopyridine compounds and methods of use thereof” (The Regents of the University of Michigan, priority 2013, dated 2016).

Assay [1] concerns Hoxa9 and Meis 1. Nature of the assay: qRT-PCR of MLL fusion downstream targets. It counts as cell-based. Conditions: qRT-PCR in MLL-AF9 BMC, FIG. 10. The source says: FIG. 10. […] B. qRT-PCR performed in MLL-AF9 BMC for Compound 175.
(In qPCR the cycle at which signal appears reflects the starting amount.)

In assay [2] the target is T1, menin-MLL-AF9 interaction (Homo sapiens, UniProt O00255).
T1 construct: performed in HEK293 cells transfected with MLL-AF9; endogenous in cells; host or cells: HEK293 cells (transfected with MLL-AF9)
T1 sequence (O00255 1-610): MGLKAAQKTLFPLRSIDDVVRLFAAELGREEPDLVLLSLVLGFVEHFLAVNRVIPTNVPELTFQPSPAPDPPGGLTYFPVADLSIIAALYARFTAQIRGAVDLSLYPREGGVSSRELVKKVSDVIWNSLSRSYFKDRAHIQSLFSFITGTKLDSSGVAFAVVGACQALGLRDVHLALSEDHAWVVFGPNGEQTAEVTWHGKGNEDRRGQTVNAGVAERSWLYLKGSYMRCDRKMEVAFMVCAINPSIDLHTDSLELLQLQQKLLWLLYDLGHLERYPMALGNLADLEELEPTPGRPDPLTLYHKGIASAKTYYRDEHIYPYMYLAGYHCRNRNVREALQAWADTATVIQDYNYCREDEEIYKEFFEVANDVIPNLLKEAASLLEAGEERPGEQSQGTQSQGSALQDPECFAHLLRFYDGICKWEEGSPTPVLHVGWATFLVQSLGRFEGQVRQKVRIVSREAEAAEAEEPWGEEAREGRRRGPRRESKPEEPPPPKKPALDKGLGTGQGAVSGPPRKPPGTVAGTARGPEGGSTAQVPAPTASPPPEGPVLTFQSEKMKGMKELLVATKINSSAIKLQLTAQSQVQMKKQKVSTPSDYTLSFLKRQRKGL
Nature of the assay: Co-Immunoprecipitation (co-IP) in HEK293 cells transfected with MLL-AF9. Conditions: HEK293 cells transfected with MLL-AF9, FIG. 2. Type of assay: cell-based.

For assay [3], the system named is MLL-AF9 transformed mouse bone marrow cells (BMC). Kind of assay: MTT cell viability assay in transformed BMC. It counts as cell-based. To be noted: 72 h incubation, E2H-HLF transformed BMC as negative control, FIG. 3. A general note: Tetrazolium dyes change colour on reduction, which living cells bring about.
In assay [4] the test system is MLL-AF9 BMC. Kind of assay: Differentiation (CD11b expression, cell morphology). Type of assay: cell-based. Conditions: CD11b expression level and cell morphology, FIG. 9.
Assay [5] has as its system non-MLL leukemia cell lines. Nature of the assay: Growth inhibition of non-MLL leukemia cell lines. Type of assay: cell-based. To be noted: FIG. 13 B.
Assay [6] concerns human MLL leukemia cell lines. Nature of the assay: Growth inhibition of human MLL leukemia cell lines. It counts as cell-based. Conditions: FIG. 13 A.
In assay [7] the test system is MLL-AF9 transformed BMC. Nature of the assay: Growth curves experiments in transformed BMC. Type of assay: cell-based. Conditions: MLL-AF9 BMC vs Hoxa9/Meis1 transformed BMC (negative control), FIG. 5.
Assay [8] deals with T2, menin-MLL interaction (Homo sapiens, UniProt O00255).
T2 sequence (O00255 1-610): T1 sequence (O00255 1-610)
Kind of assay: biochemical.
Excerpt: Compounds that inhibit the interaction decrease the fluorescence anisotropy which is being used as a read-out for compound screening and for IC50 determination.

For assay [9], the system named is human MLL leukemia cell lines. Kind of assay: MTT cell viability assay in human leukemia cell lines. It counts as cell-based. To be noted: 3 days of incubation, FIG. 11.
The subject of assay [10] is MLL-AF9 leukemia. Nature of the assay: In vivo efficacy in mice model of MLL-AF9 leukemia. To be noted: once daily i.p. injections of 75 mg/kg dose, FIG. 18. The source says: FIG. 18. In vivo efficacy studies with compound 108 in mice model of MLL-AF9 leukemia.
The subject of assay [11] is MLL-AF9 BMC. Nature of the assay: Colony formation assay. Type of assay: cell-based. Conditions: each round 7 days, FIG. 7. The source says: FIG. 7. […] Each round takes 7 days.

pIC50: −log10 of the molar value.

Turning to `CC1(C)CN=C(N2CCN(c3ncnc4sc(CC(F)(F)F)cc34)CC2)S1` [Compound 1, 4-(4-(5,5-dimethyl-4,5-dihydrothiazol-2-yl)piperazin-1-yl)-6-(2,2,2-trifluoroethyl)thieno[2,3-d]pyrimidine], the “expression of Hoxa9 and Meis 1” value in [1] is “downregulate expression of downstream targets of MLL fusion proteins”. In addition, the “inhibition of the menin-MLL-AF9 interaction” value in assay [2] is “inhibition of the menin-MLL-AF9 interaction”. Moreover, the inhibition of proliferation result in assay [3] is given as “selectively inhibit proliferation of MLL leukemia cells”. Turning to `N#Cc1cc2cc(CN3CCC(Nc4ncnc5sc(CC(F)(F)F)cc45)CC3)ccc2[nH]1` [Compound 175, 5-((4-((6-(2,2,2-trifluoroethyl)thieno[2,3-d]pyrimidin-4-yl)amino)piperidin-1-yl)methyl)-1H-indole-2-carbonitrile], the differentiation entry in [4] is reported as “Differentiation induced”. Besides, the “expression of Hoxa9 and Meis 1” value in assay [1] is “downregulate expression of downstream targets of MLL fusion proteins”. Besides, the values for the growth inhibition result in assay [5] and in [6] were “limited effect” and “selectively inhibits growth of human MLL leukemia cell lines”, respectively. For the same molecule, the “inhibition of the menin-MLL-AF9 interaction” value in assay [2] is “inhibition of the menin-MLL-AF9 interaction”. For the same molecule, the “selectivity in growth curves” value in assay [7] is listed as “great selectivity of the compound towards MLL fusion protein transformed cells”. Further, the pIC50 in assay [8] is above 7.00.

Regarding `FC(F)(F)Cc1cc2c(NC3CCN(Cc4ccccc4)CC3)ncnc2s1` [Compound 108], the “expression of Hoxa9 and Meis 1” value in assay [1] is given as “downregulate expression of downstream targets of MLL fusion proteins”. Also, the “inhibition of the menin-MLL-AF9 interaction” value in assay [2] is on record as “inhibition of the menin-MLL-AF9 interaction”. Further, in assay [9], the growth inhibition result is listed as “selectively inhibit growth of human MLL leukemia cell lines”. Also, in assay [3], the inhibition of proliferation result is “selectively inhibit proliferation of MLL leukemia cells”. In addition, the “survival of leukemic mice” value in [10] is recorded as “Increase in survival of leukemic mice”. Besides, the morphology of colonies entry in assay [11] is on record as “changes morphology of colonies”. The molecule also gave a pIC50 in assay [8] of 6.30 to 7.00. In assay [8], `Cc1c(CN2CCC(Nc3ncnc4sc(CC(F)(F)F)cc34)CC2)ccc2c1cc(C#N)n2Cc1cn[nH]c1` [Compound 309, 1-((1H-pyrazol-4-yl)methyl)-4-methyl-5-((4-((6-(2,2,2-trifluoroethyl)thieno[2,3-d]pyrimidin-4-yl)amino)piperidin-1-yl)methyl)-1H-indole-2-carbonitrile] gave a pIC50 above 7.00.

The molecule `N#Cc1cc2cc(CN3CCC(Nc4ncnc5sc(CC(F)(F)F)cc45)CC3)ccc2n1CCn1cccn1` [Compound 196] had a pIC50 in [8] above 7.00. The molecule `FC(F)(F)Cc1cc2c(NC3CCN(Cc4cc[nH]c4)CC3)ncnc2s1` [Compound 134] showed a pIC50 in assay [8] of 6.30 to 7.00. With `N#Cc1cc2cc(CN3CCC(Nc4ncnc5sc(CC(F)(F)F)cc45)C(N)C3)ccc2[nH]1` (stereo not shown) [Compound 160], the pIC50 in [8] is above 7.00. In assay [8], `CCc1c(CN2CCC(Nc3ncnc4sc(CC(F)(F)F)cc34)CC2)ccc2[nH]c(C#N)cc12` [Compound 295] gave a pIC50 above 7.00. Take `Cc1c(CN2CCC(Nc3ncnc4sc(CC(F)(F)F)cc34)CC2)ccc2c1cc(C#N)n2CCO` [Compound 299]: the pIC50 in assay [8] is above 7.00. On the same count and under the same terms, in the case of `O=C(N1CCCC1)N1CCN(c2ncnc3sc(CC(F)(F)F)cc23)CC1` [Compound 86] it was 5.70 to 6.30; in that of `Cc1nc[nH]c1Cn1c(C#N)cc2c(C)c(CN3CCC(Nc4ncnc5sc(CC(F)(F)F)cc45)CC3)ccc21` [Compound 350], above 7.00.

Molecule `Cc1c(CN2CCC(Nc3ncnc4sc(CC(F)(F)F)cc34)CC2)ccc2c1cc(C#N)n2CCN1CCNC(C(N)=O)C1` (stereo not shown) [Compound 363] showed a pIC50 in [8] above 7.00.

In turn, `CS(=O)(=O)Cc1ccc(CC(=O)N2CCN(c3ncnc4sc(CC(F)(F)F)cc34)CC2)cc1` [Compound 43] gave a pIC50 in assay [8] above 7.00.

In [8], `FC(F)(F)Cc1cc2c(N3CCN(c4nnc(CCc5ccccc5)s4)CC3)ncnc2s1` [Compound 42] showed a pIC50 of 5.70 to 6.30.

For `O=C(Cc1ccc(NS(=O)(=O)N2CCCCC2)cc1Cl)N1CCN(C2=NC=NC3SC(CC(F)(F)F)=CC23)CC1` (stereo not shown) [Compound 284], the pIC50 in assay [8] is above 7.00. The same measure, in the same setting: in the case of `FC(F)(F)Cc1cc2c(NC3CCN(Cc4ccc5cc[nH]c5c4)CC3)ncnc2s1` [Compound 227] it was 6.30 to 7.00.

On to `Cc1c(CN2CCC(Nc3ncnc4sc(CC(F)(F)F)cc34)CC2)ccc2c1cc(C#N)n2Cc1cc(O)n[nH]1` [Compound 331], for which, in assay [8], the pIC50 was above 7.00.

For `N#Cc1cc2cc(CN3CCC(Nc4ncnc5sc(CC(F)(F)F)cc45)CC3)ccc2n1CC(CO)OC1CC1` (stereo not shown) [Compound 222], the pIC50 in assay [8] is above 7.00.

In assay [8], `CC1(C)CN=C(N2CCN(c3ncnc4sc(CCC5CC5)cc34)CC2)S1` [Compound 36] showed a pIC50 of 5.70 to 6.30. Same read-out and setting: in the case of `N#Cc1cc2cc(CN3CCC(Nc4ncnc5sc(CC(F)(F)F)cc45)CC3)ccc2n1C(F)C(N)=O` (stereo not shown) [Compound 220] it was above 7.00.

With `CS(=O)(=O)OCCn1c(C#N)cc2cc(CN3CCC(Nc4ncnc5sc(CC(F)(F)F)cc45)CC3)ccc21` [Compound 395], in assay [8], the pIC50 is above 7.00. The same measure, in the same setting: to `O=CN1CCCC1CN[C@H]1CN(Cc2ccccc2)CC[C@@H]1Nc1ncnc2sc(CC(F)(F)F)cc12` (stereo partly shown) [Compound 170] belongs 6.30 to 7.00; to `O=C(COCc1ccccc1)N1CCN(c2ncnc3sc(CC(F)(F)F)cc23)CC1` [Compound 92], 5.70 to 6.30.

As for `CC(C)S(=O)(=O)Nc1ccc(CC(=O)N2CCN(c3ncnc4sc(CC(F)(F)F)cc34)CC2)cc1` [Compound 56], the pIC50 in assay [8] is above 7.00.

Take `N#Cc1cc2cc(CN3CCC(Nc4ncnc5sc(CC(F)(F)F)cc45)CC3)ccc2n1CCn1ccnn1` [Compound 207]: the pIC50 in [8] is above 7.00. Molecule `O=C(Cc1ccc(F)cc1)N1CCN(c2ncnc3sc(CC(F)(F)F)cc23)CC1` [Compound 75] gave a pIC50 in assay [8] of 6.30 to 7.00.

A word on the pIC50: it is the negative decadic logarithm of the IC50, by convention in mol/L.
